Measured values: patent US9359361B2, “Immune system modulators” (JANUS BIOTHERAPEUTICS, INC., priority 2011, dated 2016)

Molecular target: human TLR9 (hTLR9) (Homo sapiens (Human), UniProt Q9NR96)
Assay: TLR9 antagonist assay in HEK-Blue-hTLR9 cells (NF-kB/AP-1 SEAP reporter)
Type: cell-based
Conditions: hTLR9 agonist (such as ODN 2006, 1 uM), SEAP readout at 620 nm, read-out: hTLR9 antagonism IC50
From the text: TLR9 Antagonist Assay HEK-Blue™-hTLR9 cells were obtained from InvivoGen Inc. and used to determine test compound antagonism of human TLR9 (hTLR9) driven responses. HEK-Blue™-hTLR9 cells are designed for studying the stimulation of human TLR9 by monitoring the activation of NF-kB. As described by the manufacturer, “HEK-Blue™-hTLR9 cells were obtained by co-transfection of the hTLR9 gene and an optimized secreted embryonic alkaline phosphatase (SEAP) reporter gene into HEK293 cells. The SEAP reporter gene is placed under the control of the IFN-b minimal promoter fused to five NF-kB and AP-1 binding sites. Stimulation with a TLR9 ligand activates NF-kB and AP-1 which induces the production of SEAP. Levels of SEAP can be easily determined with QUANTI-Blue™ a detection medium that turns purple/blue in the presence of alkaline phosphatase”. TLR9 Antagonism Assay […] Day 2 […] Day 3 […] Calculation of IC50 The concentration dependent inhibition of hTLR9 dependent SEAP production was expressed as the concentration of compound which produced half the maximal level of SEAP induced by the hTLR agonist alone.

Sequence of human TLR9 (hTLR9) (Q9NR96 26-1032): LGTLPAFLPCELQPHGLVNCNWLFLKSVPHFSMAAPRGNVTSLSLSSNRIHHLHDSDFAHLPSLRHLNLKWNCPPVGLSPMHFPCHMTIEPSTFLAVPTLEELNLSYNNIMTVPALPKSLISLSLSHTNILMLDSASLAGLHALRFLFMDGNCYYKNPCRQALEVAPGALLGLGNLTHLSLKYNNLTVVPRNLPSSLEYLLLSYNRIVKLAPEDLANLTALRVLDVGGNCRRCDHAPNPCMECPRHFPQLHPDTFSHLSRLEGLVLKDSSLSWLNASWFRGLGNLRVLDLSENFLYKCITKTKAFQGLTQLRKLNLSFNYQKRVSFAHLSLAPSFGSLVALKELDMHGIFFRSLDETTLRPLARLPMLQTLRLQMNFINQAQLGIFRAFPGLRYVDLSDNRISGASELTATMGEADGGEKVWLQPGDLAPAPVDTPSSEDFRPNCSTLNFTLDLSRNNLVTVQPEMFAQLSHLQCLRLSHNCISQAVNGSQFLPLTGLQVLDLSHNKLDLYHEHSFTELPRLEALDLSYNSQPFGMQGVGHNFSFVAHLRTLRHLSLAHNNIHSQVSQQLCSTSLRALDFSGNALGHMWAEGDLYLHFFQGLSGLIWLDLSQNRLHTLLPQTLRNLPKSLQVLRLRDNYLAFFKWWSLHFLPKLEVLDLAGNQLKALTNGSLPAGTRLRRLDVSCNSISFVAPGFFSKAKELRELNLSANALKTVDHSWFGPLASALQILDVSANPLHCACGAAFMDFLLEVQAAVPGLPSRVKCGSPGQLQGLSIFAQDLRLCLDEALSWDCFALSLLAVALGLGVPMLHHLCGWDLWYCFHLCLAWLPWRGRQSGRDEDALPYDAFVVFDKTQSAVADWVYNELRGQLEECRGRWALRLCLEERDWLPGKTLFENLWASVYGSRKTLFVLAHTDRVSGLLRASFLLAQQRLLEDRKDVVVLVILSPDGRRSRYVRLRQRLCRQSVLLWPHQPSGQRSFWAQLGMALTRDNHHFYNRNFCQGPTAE

SMILES: c1ccc(-c2nc(NCCN3CCOCC3)c3nc(NCCN4CCOCC4)c(N4CCCC4)nc3n2)cc1 [Example 66]
- IC50: 181 nM
